# In patent publication US20020169101A1, “Treatment of sexual dysfunction” (priority 1999, published 2002):
# pKi: −log10 of the molar value.
# Tests used:
# [1] = tested on: female rat sexual proceptivity (NMB-inhibited); assay: Inhibition of female rat proceptivity by i.c.v. NMB and its antagonism; assay type: in vivo; conditions: progesterone 0.5 mg s.c. 4 h; NMB 100 ng i.c.v. 10 min before test in progesterone-treated rats; Compound (1) 15 mg/kg i.p. 1 h before NMB (FIG. 5)
# Procedure: Ovariectomised female rats (Sprague Dawley, obtained from Charles River, UK) were stereotaxically implanted (coordinates 0.89 mm behind Bregma, 1.3 mm lateral and 2.5 mm vertical) with stainless steel cannulae (6 mm long, O.D. 0.75 mm), held in place with dental cement. Animals were housed in groups of three and returned to a reversed lighting system of 12 h light:dark (lights off 5.00-17.00 h). Correct placement of the cannulae was assessed post-mortem. Rats were used for tests two weeks after ovariectomy (one week after cannulation). The experiments started at least 5 h into the dark period. Forty eight hours before tests, the animals were primed with 5 μg oestradiol benzoate (OB) (s.c, in corn oil) and adapted to the apparatus (in the absence of stimuli animals) for 10 min on 2 consecutive days prior testing. The 10 min test was carried out as previously described. The difference in the percentage of time spent investigating male minus female was calculated, out of the total time spent investigating stimuli.
# Progesterone (Prog, 0.5 mg/0.1 ml) was dissolved in corn oil and administered subcutaneously (s.c.), 4 h before test, to induce proceptive behaviour. Compound (1) (15 mg/kg, i.p.) was dissolved in 50% 2-hydroxypropyl-β-cyclodextrin in saline and administered 1 h before the i.c.v. administration. Neuromedin B was obtained from Bachem, UK. It was dissolved in isotonic saline and administered i.c.v. over a 30 sec period, with the aid of a pump set to deliver a flow of 10 μl/min, 10 min before tests. The dosing volume was 5 μl/rat. Each rat received a total amount of 100 ng.
# [2] = tested on: sexual behaviour of sexually dysfunctional male rats; assay: Sexual behaviour of fluoxetine-induced sexually dysfunctional male rats; assay type: in vivo, rat; conditions: fluoxetine-pretreated rats, Compound (1) 15 mg/kg or yohimbine 2 mg/kg i.p. 1 h before test
# Procedure: Sprague Dawley male rats (Charles River, UK) were kept, 4 rats per cage, in a reversed lighting regime (12:12 hours, lights off at 5.00 h), with free access to food and water. The rats were pre-selected by being presented with a receptive female at 4 days intervals, i.e. every third day (having 2 clear days between presentations) until completing 6-7 trials of baseline determination. The animals showing consistently vigorous behaviour (ejaculatory latencies <300s) were chosen for further experiments. Animals were treated for 3 consecutive days with either vehicle (water) or fluoxetine (20 mg/kg, i.p., in a 2 ml/kg dosing volume). On the fourth day, the animals treated with water received vehicle (veh+veh) and the animals treated with fluoxetine received one of the three following treatments: Compound (1) (15 mg/kg, dissolved in 50% 2-hydroxypropyl-β-cyclodextrin in saline), vehicle (cyclodextrine), or yohimbine (2 mg/kg dissolved in water). All treatments were administered i.p. in a 1 ml/kg volume, 1 h before tests.
# For all the sexual behaviour tests, the males were placed in an observation arena (50-60 cm diameter), starting 5 hours into the dark cycle and observed under red illumination. Three to 4 minutes after placing the male in the arena, a receptive female (ovariectomised, bearing a 7 mm Silastic implant of oestradiol benzoate) was introduced to the arena and the following parameters noted: Mount Latency: time (in seconds) taken between introduction of female and first mount. A maximum time of 15 minutes (900 seconds) was allowed, and the test terminated if no mounts were recorded within that time (FIG. 16), Ejaculation Latency: time (in seconds) taken from first intromission to ejaculation. A maximum time of 30 minutes (1800 seconds) was given, and the test terminated if ejaculation was not achieved in that time (FIG. 17), Percentage of males achieving ejaculation within 30 minutes was calculated (FIG. 18).
# A one-way ANOVA followed by Dunnett's t test was used to compare the fluoxetine+vehicle group and other groups for mount and ejaculatory latencies. Percentage of animals ejaculating was analysed using a Chi-square test followed by Fisher's test. (*: P<0.05, **: P<0.01, ***: P<0.001; n=15-19).
# human NMB receptor (BB1) = biological target: T1, human NMB receptor (BB1) (Homo sapiens, UniProt P28336); assay: BB1 binding assay ([125I][Tyr4]bombesin displacement, CHO-K1 membranes); conditions: read-out: hBB1 Ki
# T1 construct: expressed in transfected cells; membranes prepared from the cells
# Method in brief: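 Competition against <0.1 nM [125I][Tyr4]bombesin, 60 min for the NMB receptor and 90 min for the GRP receptor, using homogenised membranes of human-receptor-expressing CHO-K1 cells in pH 7.4 Tris buffer. Bound label was filtered and gamma-counted, with 1 μM bombesin as nonspecific. Ki values came from IC50 via Cheng-Prusoff.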
# T1 sequence (P28336 whole entry): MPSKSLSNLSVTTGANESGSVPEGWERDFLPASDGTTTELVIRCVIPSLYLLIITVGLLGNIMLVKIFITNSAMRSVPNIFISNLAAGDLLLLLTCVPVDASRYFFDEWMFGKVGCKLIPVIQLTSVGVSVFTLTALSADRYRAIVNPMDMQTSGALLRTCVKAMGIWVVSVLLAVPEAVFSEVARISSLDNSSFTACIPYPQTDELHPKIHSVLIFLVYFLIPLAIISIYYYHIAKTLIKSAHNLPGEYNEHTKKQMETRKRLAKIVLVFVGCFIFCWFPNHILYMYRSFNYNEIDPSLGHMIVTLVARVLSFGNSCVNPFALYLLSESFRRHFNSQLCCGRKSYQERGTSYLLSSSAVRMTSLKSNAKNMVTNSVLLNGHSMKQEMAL
SMILES,proceptivity (percentage of time investigating male minus female stimulus) [1],Mount Latency ([2]; vs fluoxetine+vehicle (FIG. 16)),Ejaculation Latency ([2]; vs fluoxetine+vehicle (FIG. 17)),percentage of animals ejaculating ([2]; vs fluoxetine+vehicle (FIG. 18)),pKi (human NMB receptor (BB1))
"COc1ccc(C2(CNC(=O)[C@](C)(Cc3c[nH]c4ccccc34)NC(=O)Nc3ccc([N+](=O)[O-])cc3)CCCCC2)nc1 [Compound (1), (S) 3-(1H-Indol-3-yl)-N-[1-(5-methoxy-pyridin-2-yl)-cyclohexyl-methyl]-2-methyl-2-[3-(4-nitro-phenyl)-ureido]-propionamide]",prevented the inhibitory effect of NMB,significantly decreased,significantly decreased,increasing the percentage of animals ejaculating,–
"C[C@@](Cc1c[nH]c2ccccc12)(NC(=O)Nc1ccc([N+](=O)[O-])cc1)C(=O)NCC1(c2ccc(N)cc2)CCCCC1 [Compound 3, (2S)-N-{[1-(4-aminophenyl)cyclohexyl]methyl}-3-(1H-indol-3-yl)-2-methyl-2-{[(4-nitroanilino)-carbonyl]amino}propanamide]",–,–,–,–,9.60
